Experimental data reported in patent publication US11400073B2, “Prevention and treatment of benign prostatic hyperplasia using a selective inhibitor of the production of reactive oxygen species of mitochondrial origin” (priority 2017, dated 2022).

How the values were obtained:
[1] = system: epithelial proliferation (Ki-67); test: Epithelial proliferation by IHC Ki-67 in Pb-PRL mouse prostate; type: in vivo; conditions: Pb-PRL mice, 60 mg/kg/day by gavage, 28 days, vs control group; half-prostate; FIG. 2
Experimental: (§1) ATT (anethole trithione) was administered to probasin-prolactin (Pb-PRL) mice. This is a transgenic mouse model in which prolactin is specifically overexpressed by the epithelial cells of the prostate, leading to development of benign hyperplasia having characteristics in common with the human pathology: tissue hypertrophy, hyperplasia of the epithelial and stromal cells, and intra-prostatic inflammation (Kindblom et al., 2003; Bernichtein et al., 2015a; Bernichtein et al., 2015b).
(§2) The control group (excipient) was treated with the oil alone.
(§3) The animals were sacrificed at the end of the 28 days of treatment (cervical dislocation), and the prostates were harvested and analyzed by the standard procedures previously described in the literature (Bernichtein et al. Prostate 2015, Bernichtein et al. PLoS. ONE 2015, Bernichtein et al. Cancer Res 2017).
Cell proliferation was measured by IHC Ki-67, which makes it possible to calculate the epithelium proliferation index (manual counting or Calopix software).

[2] = system: SRD5A1 (5-alpha-reductase); test: RT-qPCR of SRD5A1 in Pb-PRL mouse prostate; type: in vivo; conditions: Pb-PRL mice, 60 mg/kg/day, 28 days, vs control; dorsal, lateral, ventral prostate; FIGS. 4A-4C
Experimental: as §1, §2, §3
(§4) This study was performed by RT-qPCR analysis of the expression of elements associated with androgenic signaling and of conventional targets of the androgen receptor in the prostate (AR, PSP 94, Srd5A1, Srd5A2) (Bernichtein et al. Prostate 2015, Sackmann Sala et al. J Pathol 2017).

[3] = system: SRD5A2 (5-alpha-reductase); test: RT-qPCR of SRD5A2 in Pb-PRL mouse prostate; type: in vivo; conditions: Pb-PRL mice, 60 mg/kg/day, 28 days, vs control; dorsal, lateral, ventral prostate; FIGS. 5A-5C
Experimental: as §1, §2, §3, §4

[4] = system: PSP94; test: RT-qPCR of PSP94 in Pb-PRL mouse prostate; type: in vivo; conditions: Pb-PRL mice, 60 mg/kg/day, 28 days, vs control; dorsal, lateral, ventral prostate; FIGS. 6A-6C
Experimental: as §1, §2, §3, §4

[5] = system: CD45; test: CD45 immunolabeling (IHC) of inflammation sites in Pb-PRL mouse prostate; type: in vivo; conditions: Pb-PRL mice, 60 mg/kg/day, 28 days, vs control; half-prostate; FIG. 7
Experimental: as §1, §2, §3
(§5) The inflammation was measured using two approaches: • CD45 immunolabeling (IHC): making it possible to quantify the number and size of the inflammation sites (image analysis using Calopix software). • RT-qPCR of selected cytokines: IL6 and TNFa.

[6] = system: IL6; test: RT-qPCR of IL6 in Pb-PRL mouse prostate; type: in vivo; conditions: Pb-PRL mice, 60 mg/kg/day, 28 days, vs control; dorsal, lateral, ventral prostate; FIGS. 8A-8C
Experimental: as §1, §2, §3, §5

[7] = system: TNFalpha; test: RT-qPCR of TNFalpha in Pb-PRL mouse prostate; type: in vivo; conditions: Pb-PRL mice, 60 mg/kg/day, 28 days, vs control; dorsal, lateral, ventral prostate; FIGS. 9A-9C
Experimental: as §1, §2, §3, §5

[8] = system: Pb-PRL mice; test: Scar fibrosis in Pb-PRL mouse prostate; type: in vivo; conditions: 60 mg/kg/day, 28 days, vs control
Experimental: ATT (anethole trithione) was administered to probasin-prolactin (Pb-PRL) mice. This is a transgenic mouse model in which prolactin is specifically overexpressed by the epithelial cells of the prostate, leading to development of benign hyperplasia having characteristics in common with the human pathology: tissue hypertrophy, hyperplasia of the epithelial and stromal cells, and intra-prostatic inflammation (Kindblom et al., 2003; Bernichtein et al., 2015a; Bernichtein et al., 2015b). […] The control group (excipient) was treated with the oil alone. […] The animals were sacrificed at the end of the 28 days of treatment (cervical dislocation), and the prostates were harvested and analyzed by the standard procedures previously described in the literature (Bernichtein et al. Prostate 2015, Bernichtein et al. PLoS. ONE 2015, Bernichtein et al. Cancer Res 2017).

[9] = system: oxidation/carbonylation of the proteins; test: Oxidation/carbonylation of the proteins by blot (Oxyblot) in Pb-PRL mouse prostate; type: in vivo; conditions: Pb-PRL mice, 60 mg/kg/day, 28 days, vs control; all lobes; FIGS. 10A-10C
Experimental: as §1, §2, §3
(§6) Oxidative stress will be measured using two approaches: • oxidation/carbonylation of the proteins by blot (Oxyblot™, Merck). • PHD1 and PHD3 dioxygenase expression (RT-qPCR).

[10] = system: PHD1 dioxygenase; test: RT-qPCR of PHD1 dioxygenase in Pb-PRL mouse prostate; type: in vivo; conditions: Pb-PRL mice, 60 mg/kg/day, 28 days, vs control; FIGS. 11A-11C
Experimental: as §1, §2, §3, §6

[11] = system: PHD3 dioxygenase; test: RT-qPCR of PHD3 dioxygenase in Pb-PRL mouse prostate; type: in vivo; conditions: Pb-PRL mice, 60 mg/kg/day, 28 days, vs control; FIGS. 12A-12C
Experimental: as §1, §2, §3, §6

[12] = system: HIF1 alpha; test: RT-qPCR of HIF1 alpha (hypoxia) in Pb-PRL mouse prostate; type: in vivo; conditions: Pb-PRL mice, 60 mg/kg/day, 28 days, vs control; in one or more prostate lobes; FIGS. 13A-13C
Experimental: as §1, §2, §3
Hypoxia was observed by analysis of HIF1 alpha measured by RT-qPCR at the dorsal, lateral and ventral prostate. The results are presented in FIGS. 13A, 13B and […], respectively.

[13] = system: IQ site of the I complex of the mitochondrial respiratory chain; test: Action on mitochondrial ROS production; type: biochemical; conditions: mostly at the IQ site of the I complex of the mitochondrial respiratory chain; unlike conventional antioxidants
[14] = system: mitochondrial oxidative phosphorylation; test: Effect on mitochondrial oxidative phosphorylation; type: biochemical; conditions: preliminarily demonstrated
[15] = in rats; cited from earlier work
[16] = marketed as SULFARLEM; cited from earlier work
[17] = system: cytokines; conditions: experimental T. vaginalis prostatic infection models; inhibition of ROS production (Kim S-S., 2016); cited from earlier work
[18] = system: prostatic ROSs; conditions: Ren, 2015; cited from earlier work
[19] = system: HIF-1α; conditions: Ren, 2015; cited from earlier work
[20] = system: VEGF; conditions: Ren, 2015; cited from earlier work
[21] = system: cell proliferation / apoptosis; conditions: Ren, 2015; cited from earlier work

For `COc1ccc(-c2cc(=S)ss2)cc1` [ATT, 5-(4-methoxyphenyl)-3H-1,2-dithiole-3-thione], the “epithelial proliferation of the prostate (Ki-67 immunohistochemistry)” value [1] was “statistically significant decrease”, the “expression of 5-alpha-reductase 1 (SRD5A1) messenger RNAs” value [2] was “statistically significant decrease” and the “expression of 5-alpha-reductase 2 (SRD5A2) messenger RNAs” value [3] was “statistically significant decrease”. For the same compound, the “expression of PSP94 messenger RNAs” value [4] was “statistically significant decrease”, the “number of positive leukocyte cell sites for the CD45 marker” value [5] was “statistically significant decrease” and the “expression of IL6” value [6] was “decrease”. The “expression of TNFalpha” value [7] was “decrease”, the scar fibrosis [8] was “statistically significant increase” and the “carbonylation of the proteins (Oxyblot)” value [9] was “statistically significant decrease”. The “expression of the messenger RNAs of PHD1 dioxygenase” value [10] was “statistically significant decrease”, the “expression of the messenger RNAs of PHD3 dioxygenase” value [11] was “statistically significant decrease” and the “expression of the messenger RNAs of the HIF1 alpha hypoxia marker” value [12] was “statistically significant increase”. For the same compound, the “action on mitochondrial ROS production” value [13] was “acts directly and selectively”, the “effect on mitochondrial oxidative phosphorylation” value [14] was “does not affect” and the half-life [15] was 24 min. The “side effects associated to long-term use” value [16] was “no side effect has been reported”.

For `c1ccc2c(c1)[I+]c1ccccc1-2` [DPI, diphenylene iodonium], the overexpression of cytokines [17] is given as “prevents overexpression”.

For `CC1=NN(c2ccccc2)C(=O)C1` [edaravone], the “levels of prostatic ROSs” value [18] is given as “decreases”, the “levels of HIF-1α” value [19] is given as “decreases” and the “levels of VEGF” value [20] is given as “decreases”. The apoptosis [21] was “promotes” and the cell proliferation [21] was “reduces”.
